The target of one series is EGFR Del19/T790M/C797S (Homo sapiens, UniProt P00533, T790M/C797S, form not given). Briefly: Kinase assay (mobility shift), EGFR Del19/T790M/C797S. It counts as biochemical. The protocol: (§1) Test 1 Kinase Assay for EGFR Del19/T790M/C797S and EGFR Wildtype
(§2) Enzyme reaction protocol are as follows:
(§3) 1. Preparing 1* Kinase buffer as followed.
(§4) 2. Preparing Compound Concentration Gradient: Compounds were tested at a concentration of 300 nM, diluted to 100-fold final concentration in 100% DMSO solution in 96-well plates, and compounds were diluted 3 times with Precision, 10 concentrations. Each concentration of the compound was then further diluted to a 5-fold final concentration of the intermediate dilution solution using 1* Kinase buffer.
(§5) 3.5 μL of each of the prepared intermediate dilution compounds was separately added to the compound wells of the 384-well plate, and each concentration was tested for duplicate wells; 5 μL of 5% DMSO was added to the negative control wells and the positive control wells, respectively.
(§6) 4. 2.5-fold final concentration of the kinase solution was prepared using 1*Kinase buffer.
(§7) 5. Add 10 μL of 2.5-fold final concentration of kinase solution to the compound well and positive control well; add 10 μL of 1*Kinase buffer to the negative control well.
(§8) 6. Centrifuge at 1000 rpm for 30 seconds, shake the reaction plate and incubate for 10 minutes at room temperature.
(§9) 7. A mixed solution of 2.5 times the final concentration of ATP and Kinase substrate (5-FAM-EEPLYWSFPAKKK-CONH2) was prepared using 1*Kinase buffer.
(§10) 8. 10 μL of a 2.5-fold final concentration of a mixed solution of ATP and a substrate was added to initiate the reaction.
(§11) 9. Centrifuge the 384-well plate at 1000 rpm for 30 seconds, mix by shaking, and incubate at room temperature for the corresponding time.
(§12) 10. Add 30 μL of the stop solution to stop the kinase reaction, centrifuge at 1000 rpm for 30 seconds, and mix by shaking.
(§13) 11. Read the conversion rate with Caliper EZ Reader.
(§14) Convert conversion values to inhibition values:
(§15) Percent inhibition 32 (max-conversion)/(max-min)*100.
(§16) “max” stands for the mean value of the positive control well ratio; “min” stands for the mean value of the negative control well.
(§17) Fit the data in log(inhibitor) vs. response Variable slope of GraphPad Prism 5 to obtain IC50 values.
(§18) Equation used is: Y=Bottom+(Top-Bottom)/(1+(IC50/X)^HillSlope)

Series [1] is described as follows: Pharmacokinetic assay, oral administration. Type of series: in vivo. The conditions noted are these: rat, male SD rats, plasma. The protocol:
Test 5 Pharmacokinetic Assay
Male SD rats, oral administration (intragastric administration), 3 in each group. Animals administered by gavage were fasted overnight before the experiment, and the fasting time was from at least 12 hours before administration to 4 hours after administration. The blood was collected using the orbital vein. Time of blood collection by oral administration: 15 min, 30 min, 1 h, 2 h, 4 h, 7 h, 24 h. The blood collection volume was 300 uL, and after anticoagulation with 2.0% EDTA, the blood was centrifuged at 4000 rpm for 5 min, and the blood plasma was taken for about 100 uL, and placed in −20° C. for examination. The plasma sample was analyzed using liquid chromatography tandem mass spectrometry (LC-MS/MS). Plasma concentration-time data for individual animals were analyzed using WinNonlin (V4.1, Pharsight) software with a non-compartmental model and the pharmacokinetic parameters of the test compounds were calculated.

For another series, the target named is Ba/F3-L858R/T790M/C797S (Homo sapiens, UniProt P00533, T790M/C797S/L858R, cells depend on it). Briefly: Ba/F3-L858R/T790M/C797S cells proliferation assay (CellTiter Glo). It counts as cell-based. The conditions noted are these: cell proliferation, 72 h, read-out: Ba/F3-L858R/T790M/C797S IC50. The method in brief: (§19)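 Ba/F3 cells carrying EGFR Del19/T790M/C797S or L858R/T790M/C797S seeded at 2000 cells/well and exposed 72 h at 37 °C to compound (1000 nM top, 3-fold series, 0.5% DMSO). Viability read by CellTiter-Glo luminescence; IC50 from four-parameter non-linear regression.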
Ba/F3-L858R/T790M/C797S, sequence (P00533 whole entry T790M/C797S/L858R): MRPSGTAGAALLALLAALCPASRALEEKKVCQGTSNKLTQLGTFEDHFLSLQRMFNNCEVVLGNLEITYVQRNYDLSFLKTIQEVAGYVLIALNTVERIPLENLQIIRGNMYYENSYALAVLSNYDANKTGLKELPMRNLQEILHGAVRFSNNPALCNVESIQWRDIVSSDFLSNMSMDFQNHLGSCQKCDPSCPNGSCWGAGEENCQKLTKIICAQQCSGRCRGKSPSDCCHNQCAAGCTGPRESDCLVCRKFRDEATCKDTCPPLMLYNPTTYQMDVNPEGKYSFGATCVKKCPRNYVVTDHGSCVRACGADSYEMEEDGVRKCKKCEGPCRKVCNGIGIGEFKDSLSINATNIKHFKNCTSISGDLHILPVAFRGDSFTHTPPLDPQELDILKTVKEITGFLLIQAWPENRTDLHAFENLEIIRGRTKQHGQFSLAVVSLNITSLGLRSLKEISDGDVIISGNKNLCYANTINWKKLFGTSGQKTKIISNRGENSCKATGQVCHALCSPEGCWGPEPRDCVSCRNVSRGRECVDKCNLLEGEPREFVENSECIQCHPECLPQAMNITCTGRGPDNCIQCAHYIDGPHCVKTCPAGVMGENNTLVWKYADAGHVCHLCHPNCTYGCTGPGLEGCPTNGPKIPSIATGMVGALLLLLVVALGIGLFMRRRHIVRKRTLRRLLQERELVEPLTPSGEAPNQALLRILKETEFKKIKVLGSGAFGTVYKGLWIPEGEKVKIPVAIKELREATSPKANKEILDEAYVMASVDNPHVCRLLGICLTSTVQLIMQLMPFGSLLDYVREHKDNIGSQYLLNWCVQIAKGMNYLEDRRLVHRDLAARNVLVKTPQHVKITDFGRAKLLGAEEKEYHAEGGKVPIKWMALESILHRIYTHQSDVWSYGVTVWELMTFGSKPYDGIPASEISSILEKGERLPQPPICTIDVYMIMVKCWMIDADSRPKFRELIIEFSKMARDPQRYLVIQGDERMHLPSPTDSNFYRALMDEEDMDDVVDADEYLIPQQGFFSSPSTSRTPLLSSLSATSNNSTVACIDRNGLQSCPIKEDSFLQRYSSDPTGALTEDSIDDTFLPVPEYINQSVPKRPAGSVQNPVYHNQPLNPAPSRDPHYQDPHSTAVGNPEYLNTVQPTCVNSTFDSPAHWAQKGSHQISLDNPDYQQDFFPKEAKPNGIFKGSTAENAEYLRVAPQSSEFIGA

The target of a further series is EGFR L858R/T790M/C797S (Homo sapiens, UniProt P00533, C797S/L858R/T790M). Briefly: Kinase assay (mobility shift), EGFR L858R/T790M/C797S. It counts as biochemical.
EGFR L858R/T790M/C797S, sequence (P00533 25-1210 T790M/C797S/L858R): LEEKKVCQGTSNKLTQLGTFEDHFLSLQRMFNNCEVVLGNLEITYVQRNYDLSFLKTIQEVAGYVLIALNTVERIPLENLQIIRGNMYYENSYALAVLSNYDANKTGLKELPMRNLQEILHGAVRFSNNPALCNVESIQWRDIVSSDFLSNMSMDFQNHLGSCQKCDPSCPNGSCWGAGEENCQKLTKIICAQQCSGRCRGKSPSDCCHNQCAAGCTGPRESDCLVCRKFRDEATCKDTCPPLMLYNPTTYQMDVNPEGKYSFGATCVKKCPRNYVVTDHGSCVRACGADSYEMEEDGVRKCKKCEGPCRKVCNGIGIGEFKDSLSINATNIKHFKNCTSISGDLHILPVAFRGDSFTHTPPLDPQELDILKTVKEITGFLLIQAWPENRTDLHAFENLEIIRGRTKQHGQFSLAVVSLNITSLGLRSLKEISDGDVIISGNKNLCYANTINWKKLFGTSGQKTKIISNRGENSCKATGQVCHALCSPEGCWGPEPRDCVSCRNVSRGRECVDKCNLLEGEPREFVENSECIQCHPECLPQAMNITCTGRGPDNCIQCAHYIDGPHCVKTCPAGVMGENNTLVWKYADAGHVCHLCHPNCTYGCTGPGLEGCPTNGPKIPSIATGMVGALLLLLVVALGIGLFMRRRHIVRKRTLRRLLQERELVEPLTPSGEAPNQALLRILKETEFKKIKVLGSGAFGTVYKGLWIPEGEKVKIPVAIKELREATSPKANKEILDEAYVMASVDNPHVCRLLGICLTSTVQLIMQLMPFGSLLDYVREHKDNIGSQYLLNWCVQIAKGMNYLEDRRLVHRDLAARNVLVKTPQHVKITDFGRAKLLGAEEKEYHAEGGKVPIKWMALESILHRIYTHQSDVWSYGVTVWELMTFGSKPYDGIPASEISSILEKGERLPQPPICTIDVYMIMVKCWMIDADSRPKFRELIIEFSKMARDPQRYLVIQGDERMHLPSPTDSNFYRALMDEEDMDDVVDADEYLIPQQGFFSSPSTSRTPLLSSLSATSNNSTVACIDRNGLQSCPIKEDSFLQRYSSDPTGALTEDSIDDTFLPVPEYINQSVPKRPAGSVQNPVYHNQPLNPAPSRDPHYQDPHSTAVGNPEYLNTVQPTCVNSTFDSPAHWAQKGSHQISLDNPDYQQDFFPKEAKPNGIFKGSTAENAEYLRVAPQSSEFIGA
The target of the next series is EGFR WT (Homo sapiens, UniProt P00533). Briefly: Kinase assay (mobility shift), EGFR wildtype. Type of series: biochemical. The conditions noted are these: top concentration 300 nM. The protocol: as §1, §2, §3, §4, §5, §6, §7, §8, §9, §10, §11, §12, §13, §14, §15, §16, §17, §18
Another series deals with A431 (WT). Briefly: A431 cells proliferation assay (CellTiter Glo). It counts as cell-based. The conditions noted are these: Homo sapiens, A-431; cell proliferation, 72 h. An outline of the steps:
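Wild-type A431 cells seeded at 5000/well in DMEM/10% FBS were exposed 72 h at 37° C to compound at 10000 nM top, 3-fold down to 1.5 nM, in 0.5% DMSO. Viability by CellTiter-Glo luminescence; IC50 from four-parameter nonlinear regression.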
(ATP-based viability assays read luminescence as a measure of living cells.)

The next series addresses Ba/F3-Del19/T790M/C797S (Homo sapiens, UniProt P00533, T790M/C797S, cells depend on it, form not given). Briefly: Ba/F3-Del19/T790M/C797S cells proliferation assay (CellTiter Glo). The following applies: cell proliferation, 72 h, read-out: Ba/F3-Del19/T790M/C797S IC50. It counts as cell-based. An outline of the steps: as §19
The mark [2] stands for this setting: p.o. 10 mg/kg, formulation 5% DMSO/5% Solutol/90% normal saline.
Where [3] appears, read: p.o. 5 mg/kg, formulation differs per row.

Read-outs that look alike come from different tables or passages of the source.

EGFR Del19/T790M/C797S, sequence (P00533 with tags, fused parts or gaps DEL746-750/T790M/C797S, form open): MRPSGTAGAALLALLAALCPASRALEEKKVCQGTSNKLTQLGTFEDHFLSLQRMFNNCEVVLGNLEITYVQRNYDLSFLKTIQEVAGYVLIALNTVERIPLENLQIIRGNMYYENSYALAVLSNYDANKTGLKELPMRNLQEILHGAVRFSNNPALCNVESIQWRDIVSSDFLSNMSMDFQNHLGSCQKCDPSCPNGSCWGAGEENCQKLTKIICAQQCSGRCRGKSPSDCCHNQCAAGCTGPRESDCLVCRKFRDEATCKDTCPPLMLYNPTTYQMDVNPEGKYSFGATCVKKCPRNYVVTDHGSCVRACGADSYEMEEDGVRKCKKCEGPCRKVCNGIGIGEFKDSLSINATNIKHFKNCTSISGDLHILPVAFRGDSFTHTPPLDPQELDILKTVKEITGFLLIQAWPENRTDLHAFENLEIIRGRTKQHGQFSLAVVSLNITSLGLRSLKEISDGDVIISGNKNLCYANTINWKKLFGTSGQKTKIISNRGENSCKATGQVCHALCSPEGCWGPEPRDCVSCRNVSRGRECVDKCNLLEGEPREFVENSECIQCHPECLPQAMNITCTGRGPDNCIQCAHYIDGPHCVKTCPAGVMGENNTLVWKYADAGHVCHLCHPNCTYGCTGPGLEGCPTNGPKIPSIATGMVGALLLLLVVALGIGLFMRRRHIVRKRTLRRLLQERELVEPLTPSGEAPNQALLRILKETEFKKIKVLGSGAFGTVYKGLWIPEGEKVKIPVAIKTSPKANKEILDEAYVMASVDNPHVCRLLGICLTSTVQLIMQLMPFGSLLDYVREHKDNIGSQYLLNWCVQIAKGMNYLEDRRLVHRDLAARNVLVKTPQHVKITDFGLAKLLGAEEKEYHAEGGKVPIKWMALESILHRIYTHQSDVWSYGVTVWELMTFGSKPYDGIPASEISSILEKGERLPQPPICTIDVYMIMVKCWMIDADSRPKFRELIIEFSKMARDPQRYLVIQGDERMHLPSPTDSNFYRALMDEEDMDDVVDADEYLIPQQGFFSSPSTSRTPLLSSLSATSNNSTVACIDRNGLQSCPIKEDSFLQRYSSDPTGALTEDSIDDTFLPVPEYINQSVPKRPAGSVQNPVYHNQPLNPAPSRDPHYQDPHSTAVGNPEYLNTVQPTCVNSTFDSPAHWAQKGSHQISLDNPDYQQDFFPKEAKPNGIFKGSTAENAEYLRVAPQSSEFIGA
Ba/F3-Del19/T790M/C797S, sequence (P00533 with tags, fused parts or gaps DEL746-750/T790M/C797S, form open): as above

As for `Cc1cc(Nc2ncc(Cl)c(Nc3ccccc3P(C)(C)=O)n2)ccc1N1CC2(CCC(N(C)C)CC2)C1` [Example 1, (2-((5-chloro-2-((4-(7-(dimethylamino)-2-azaspiro[3.5]nonan-2-yl)-3-methylphenyl)amino)pyrimidin-4-yl)amino)phenyl)dimethylphosphine oxide], the IC50 at EGFR Del19/T790M/C797S is 0.9 nM; on EGFR L858R/T790M/C797S (class symbols) it was no more than 2 nM; on EGFR WT it was 43 nM; with A431 (WT), 48.8 nM. Also, the AUC(0-t) in series [1] (setting [2]) was determined as 1540 ng·h/mL. The compound also yielded a Cmax in series [1] (setting [2]) of 141 ng/mL. Further, the Tmax in series [1] (setting [2]) turned out to be 1.67 h. In addition, the half-life in series [1] (setting [2]) was 6.53 h. For the same compound, the GI50 was determined as 6 nM on Ba/F3-L858R/T790M/C797S (numeric values) and 5.8 nM on Ba/F3-Del19/T790M/C797S (numeric values).

For `Cc1cc(Nc2ncc(Cl)c(Nc3ccccc3P(C)(C)=O)n2)ccc1N1CC2(CCC(NC3CC3)CC2)C1` [Example 4, (2-((5-chloro-2-((4-(7-(cyclopropylamino)-2-azaspiro[3.5]nonan-2-yl)-3-methylphenyl)amino)pyrimidin-4-yl)amino)phenyl)dimethylphosphine oxide], the IC50 at EGFR Del19/T790M/C797S worked out at 1 nM; on EGFR L858R/T790M/C797S (numeric values) it was 1.5 nM; on EGFR WT, 21 nM; in the series with A431 (WT) it was 26.9 nM. Besides, the AUC(0-t) in series [1] (setting [3]) was determined as 1020 ng·h/mL. Besides, the concentration in series [1] (setting [3]) peaked (Cmax) at 71.3 ng/mL. For the same compound, in series [1] (setting [3]), the Tmax worked out at 6 h. Moreover, the half-life in series [1] (setting [3]) was 6.27 h. Further, the GI50 on Ba/F3-L858R/T790M/C797S (class symbols) is 10 to 50 nM; at Ba/F3-Del19/T790M/C797S (class symbols), no more than 10 nM.

`CN(C)C1CC2(CCN(c3ccc(Nc4ncc(Cl)c(Nc5ccccc5P(C)(C)=O)n4)cc3Cl)CC2)C1` [Example 6, (2-((5-chloro-2-((3-chloro-4-(2-(dimethylamino)-7-azaspiro[3.5]nonan-7-yl)phenyl)amino)pyrimidin-4-yl)amino)phenyl)dimethylphosphine oxide]: on EGFR Del19/T790M/C797S, the IC50 was 0.37 nM. In series [1] (setting [3]), the AUC(0-t) was 8810 ng·h/mL, the Cmax was 741 ng/mL, the Tmax amounted to 4 h and the half-life was 3 h. Further, the GI50 on Ba/F3-L858R/T790M/C797S (class symbols) fell in the range of 10 to 50 nM. Moreover, at EGFR L858R/T790M/C797S (numeric values), the IC50 is 1.3 nM. 44.7 nM corresponded to half-maximal inhibition in the series with A431 (WT) (IC50). At Ba/F3-Del19/T790M/C797S (class symbols), the GI50 lay in the range of 10 to 50 nM.

Turning to `CP(C)(=O)c1ccccc1Nc1nc(Nc2ccc(N3CCC4(CC3)CC(N)C4)c(Cl)c2)ncc1Cl` [Example 8, (2-((2-((4-(2-amino-7-azaspiro[3.5]nonan-7-yl)-3-chlorophenyl)amino)-5-chloropyrimidin-4-yl)amino)phenyl)dimethylphosphine oxide], at EGFR Del19/T790M/C797S, the IC50 turned out to be 0.58 nM. In series [1] (setting [3]), the AUC(0-t) was 2820 ng·h/mL, the highest level (Cmax) was 388 ng/mL, the Tmax is 2.08 h and the half-life was 3.17 h. Further, the GI50 on Ba/F3-L858R/T790M/C797S (numeric values) turned out to be 17.3 nM. Further, the IC50 at EGFR L858R/T790M/C797S (numeric values) was 1.6 nM. Half-maximal inhibition in the series with A431 (WT) (IC50) was put at 57.5 nM. Besides, on Ba/F3-Del19/T790M/C797S (numeric values), the GI50 is 21.5 nM.

In the case of `CN(C)C1CCC2(CC1)CN(c1ccc(Nc3ncc(Cl)c(Nc4ccccc4P(C)(C)=O)n3)cc1)C2` [Example 13, (2-((5-chloro-2-((4-(7-(dimethylamino)-2-azaspiro[3.5]nonan-2-yl)phenyl)amino)pyrimidin-4-yl)amino)phenyl)dimethylphosphine oxide], the IC50 was found to be 0.6 nM at EGFR Del19/T790M/C797S, 1.3 nM on EGFR L858R/T790M/C797S (numeric values) and 41.6 nM with A431 (WT). The GI50 at Ba/F3-L858R/T790M/C797S (class symbols) and on Ba/F3-Del19/T790M/C797S (class symbols) was no more than 10 nM throughout.

Consider `Cc1cc(Nc2ncc(Cl)c(Nc3ccccc3P(C)(C)=O)n2)ccc1N1CCC2(CC1)CC(N)C2` [Example 14, (2-((2-((4-(2-amino-7-azaspiro[3.5]nonan-7-yl)-3-methylphenyl)amino)-5-chloropyrimidin-4-yl)amino)phenyl)dimethylphosphine oxide], for which the IC50 is 0.31 nM on EGFR Del19/T790M/C797S, 1.2 nM at EGFR L858R/T790M/C797S (numeric values), 27 nM on EGFR WT and 17.5 nM in the series on A431 (WT). For the same compound, the results for the GI50 on Ba/F3-L858R/T790M/C797S (numeric values) and on Ba/F3-Del19/T790M/C797S (numeric values) were 15.1 nM and 13.2 nM, respectively.

Broadly, the IC50 is the concentration that inhibits the measured activity by half. As usually defined, the AUC(0-t) is exposure summed from dosing to a finite time, without extrapolation to infinity. A low value points to low exposure. The term Cmax denotes the highest concentration seen after dosing. In general, Tmax refers to the time from dosing to the highest level. A word on the half-life: it is how long it takes for the measured level to halve.

The values are drawn from US20220064196A1, “EGFR Inhibitors, Compositions and Methods Thereof” (Betta Pharmaceuticals Co., Ltd., priority 2019, published 2022).
